# From US7897401B2, “Control of apoptosis by controlling the propensity of ceramide channel formation” (University of Maryland, College Park, priority 2005, dated 2011)
# Legend:
# [1] = system: ceramide channel in planar phospholipid membrane; assay: Electrophysiological recordings on planar phospholipid membranes; format: biochemical
# Excerpt: Planar phospholipid membranes were produced by the monolayer method (Montal, M. et al. (1972) “FORMATION OF BIMOLECULAR MEMBRANES FROM LIPID MONOLAYERs AND A STUDY OF THEIR ELECTRICAL PROPERTIES,” Proc. Natl. Acad. Sci. USA 69:3561-3566) as modified by Colombini, M. (1987) (“CHARACTERIZATION OF CHANNELS ISOLATED FROM PLANT MITOCHONDRIA,” Methods Enzymol. 148:465-475), across a 100-μm-diameter hole in a Saran partition. Monolayers were produced using a solution of 0.5% w/v asolectin, 0.5% w/v DiPhyPC, 0.1% w/v cholesterol in hexane. This technique produces solvent-free phospholipid membranes whose lipid composition (focusing on the polar head-groups) is similar to that found in the mitochondrial outer membrane. It differs from the natural membrane in lacking proteins.
# The aqueous solutions contained 1 mM MgCl2, and 5 mM Pipes pH 6.8 with KCl varying from 0.10 M to 1.0 M. The KCl concentration on one side of the membrane, referred to as the “trans” side, was always 0.10 M, whereas the other side (the “cis” side) was adjusted as needed. The transmembrane voltage was electronically clamped and the current through the membrane was recorded. The voltage values indicated are the voltage differences across the membrane cis side minus trans side.
# C2-ceramide was stirred into the aqueous solution on each side of the membrane from a solution in DMSO, generally 0.5 mg/ml. Single or multiple additions, typically […] each, yielding a final concentration of 2 μg/ml, were made to achieve a desired level of conductance. Sphingosine additions of 5 μl were made from a solution in DMSO (4 mg/mL) yielding a final concentration of 4 μg/mL.
# The observation that anti-apoptotic Bcl-2 family proteins inhibit ceramide channel formation in isolated yeast and rat liver mitochondria correlates with previous reports showing inhibition of ceramide-induced apoptosis in whole cells by these proteins. Thus the results directly tie ceramide-induced mitochondrial-mediated apoptosis with the Bcl-2 family of proteins known to regulate these events. To address whether the antiapoptotic proteins act directly on ceramide channels or work by an indirect action, their affects on ceramide channels in solvent-free planar phospholipid membranes was tested. This is a defined system free of other proteins. When C16-ceramide is added to the aqueous solution bathing one side of a planar phospholipid membrane, it results in discontinuous increases in conductance under voltage-clamp conditions, the defining characteristic of channel formation in membranes. These conductance increments are the enlargement of one ceramide channel rather than the formation of multiple ceramide channels in parallel (Siskind, L. J. et al. (2003) “ENLARGEMENT AND CONTRACTURE OF C2-CERAMIDE CHANNELS,” Biophys. J. 85:1560-1575). […]
# [2] = published value; cited from earlier work
compound,measurement,setting,value
CCCCCCCCCCCCC/C=C/[C@@H](O)[C@@H](N)CO [sphingosine],time at which conductance reached a minimum,"[1]; C2-ceramide 3 μg/mL, sphingosine 8 μg/mL at t=0, KCl gradient",20 min
same,time over which membrane conductance decreased after addition,"[1]; C2-ceramide channel (9 μg/mL), sphingosine 4 μg/mL cis side, 10 mV",15 to 20 min
same,effect on formed ceramide channel,"[1]; C2-ceramide channel, sphingosine 4 μg/mL, conductance reached level of unmodified membrane",completely disassembled
same,CMC,[2],more than 30 μg/mL
